Measured values taken from publication PMC6270290, “Synthesis of Bistetrahydroquinolines as Potential Anticholinesterasic Agents by Double Diels-Alder Reactions” (Molecules, 2013).

Molecular target: acetylcholinesterase (AChE) (Electrophorus electricus, UniProt O42275)
Experiment: Ellman colorimetric assay, acetylthiocholine hydrolysis
Assay type: biochemical

Sequence of acetylcholinesterase (AChE) (O42275 24-633): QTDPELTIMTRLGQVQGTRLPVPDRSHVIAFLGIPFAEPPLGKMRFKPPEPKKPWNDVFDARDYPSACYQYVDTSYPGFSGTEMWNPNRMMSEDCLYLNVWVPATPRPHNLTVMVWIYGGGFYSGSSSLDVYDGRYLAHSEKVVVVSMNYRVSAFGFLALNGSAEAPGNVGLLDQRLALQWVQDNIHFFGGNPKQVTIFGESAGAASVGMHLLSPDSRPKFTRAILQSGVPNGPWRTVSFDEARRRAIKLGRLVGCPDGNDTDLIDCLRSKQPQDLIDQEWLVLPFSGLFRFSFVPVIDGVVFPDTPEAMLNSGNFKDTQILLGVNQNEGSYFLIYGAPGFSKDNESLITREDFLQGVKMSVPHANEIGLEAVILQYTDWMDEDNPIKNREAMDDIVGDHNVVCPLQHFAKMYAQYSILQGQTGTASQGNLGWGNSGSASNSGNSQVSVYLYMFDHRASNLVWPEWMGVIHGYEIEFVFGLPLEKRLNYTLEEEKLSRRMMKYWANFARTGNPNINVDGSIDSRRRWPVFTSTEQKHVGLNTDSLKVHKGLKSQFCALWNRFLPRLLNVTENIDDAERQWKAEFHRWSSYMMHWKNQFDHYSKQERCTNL

COc1ccc2c(c1)C(N1CCCC1=O)CC(c1cccc(C3CC(N4CCCC4=O)c4cc(OC)ccc4N3)c1)N2 (stereo not shown) [5c, 1,3-bis(6'-Methoxy-4'-(2-oxopyrrolidinyl-1)-1',2',3',4'-tetrahydroquinolin-2-yl)benzene]
IC50: 122 µM
